Consider 16 molecules from US11053248B2, “[1,2,4]triazolo[1,5-a]pyrimidine compounds as PDE2 inhibitors” (Janssen Pharmaceutica NV, priority 2016, dated 2021).

By Emax is commonly meant the greatest response seen or fitted, relative to the assay's reference.

Structures are written as SMILES. Where only a bound is given, the exact number is not on record here.

One experiment addresses hPDE10A2 (Homo sapiens, UniProt Q9Y233). The experiment can be described thus: biochemical. Conditions: for IC50: 60 nM cAMP substrate, read-out: hPDE10A2 pIC50 (converted); for Emax: read-out: hPDE10A2 Emax. The procedure: Rat recombinant PDE10A (rPDE10A2) was expressed in Sf9 cells using a recombinant rPDE10A baculovirus construct. Cells were harvested after 48 h of infection and the rPDE10A protein was purified by metal chelate chromatography on Ni-sepharose 6FF. Tested compounds were dissolved and diluted in 100% DMSO to a concentration 100 fold of the final concentration in the assay. Human recombinant PDE10A […] was expressed in Sf9 cells using a recombinant hPDE10A baculovirus that was made and amplified in house. Cells were harvested after 72 h of infection and the hPDE10A protein was purified by metal chelate chromatography on Ni-sepharose. Compound dilutions (0.4 μl) were added in 384 well plates to 20 μl of incubation buffer (50 mM Tris pH 7.8, 8.3 mM MgCl2, 1.7 mM EGTA). […] of rPDE10A or hPDE10A enzyme in incubation buffer was added and the reaction was started by addition of 10 μl substrate to a final concentration of 60 nM cAMP and 0.008 μCi ^3H-cAMP. The reaction was incubated for 60 minutes at room temperature. […] After sedimentation of the beads during 30 minutes the radioactivity was measured in a Perkin Elmer Topcount scintillation counter and results were expressed as cpm. For blanc values the enzyme was omitted from the reaction and replaced by incubation buffer. Control values were obtained by addition of a final concentration of 1% DMSO instead of compound.

For the next experiment, the target named is T1, hPDE2A (Homo sapiens, UniProt O00408).
T1 construct: made in house; host or cells: Sf9 insect cells (baculovirus)
The experiment can be described thus: In vitro assay PDE2A (SPA, 3H-cGMP). Type of experiment: biochemical. Conditions: for Emax: read-out: hPDE2A Emax. The procedure:
Human recombinant PDE2A (hPDE2A) was expressed in Sf9 cells using a recombinant rPDE10A baculovirus construct. Cells were harvested after 48 h of infection and the hPDE2A protein was purified by metal chelate chromatography on Ni-sepharose 6FF. Tested compounds were dissolved and diluted in 100% DMSO to a concentration 100 fold of the final concentration in the assay. Compound dilutions (0.4 μl) were added in 384 well plates to 20 μl of incubation buffer (50 mM Tris pH 7.8, 8.3 mM MgCl2, 1.7 mM EGTA). 10 μl of hPDE2A enzyme in incubation buffer was added and the reaction was started by addition of 10 μl substrate to a final concentration of 10 μM cGMP and 0.01 μCi ^3H-cGMP. The reaction was incubated for 45 minutes at room temperature. […] After sedimentation of the beads during 30 minutes the radioactivity was measured in a Perkin Elmer Topcount scintillation counter and results were expressed as cpm. For blanc values the enzyme was omitted from the reaction and replaced by incubation buffer. Control values were obtained by addition of a final concentration of 1% DMSO instead of compound.

Another experiment has as its system hPDE3B. The experiment in a line: In vitro assay PDE3 (SPA, 3H-cAMP). On the set-up: hPDE3B Emax: unit not given here. The class given is biochemical, human. Conditions: for hPDE3B pIC50: 0.4 μM cAMP substrate.

T1 sequence (O00408 whole entry): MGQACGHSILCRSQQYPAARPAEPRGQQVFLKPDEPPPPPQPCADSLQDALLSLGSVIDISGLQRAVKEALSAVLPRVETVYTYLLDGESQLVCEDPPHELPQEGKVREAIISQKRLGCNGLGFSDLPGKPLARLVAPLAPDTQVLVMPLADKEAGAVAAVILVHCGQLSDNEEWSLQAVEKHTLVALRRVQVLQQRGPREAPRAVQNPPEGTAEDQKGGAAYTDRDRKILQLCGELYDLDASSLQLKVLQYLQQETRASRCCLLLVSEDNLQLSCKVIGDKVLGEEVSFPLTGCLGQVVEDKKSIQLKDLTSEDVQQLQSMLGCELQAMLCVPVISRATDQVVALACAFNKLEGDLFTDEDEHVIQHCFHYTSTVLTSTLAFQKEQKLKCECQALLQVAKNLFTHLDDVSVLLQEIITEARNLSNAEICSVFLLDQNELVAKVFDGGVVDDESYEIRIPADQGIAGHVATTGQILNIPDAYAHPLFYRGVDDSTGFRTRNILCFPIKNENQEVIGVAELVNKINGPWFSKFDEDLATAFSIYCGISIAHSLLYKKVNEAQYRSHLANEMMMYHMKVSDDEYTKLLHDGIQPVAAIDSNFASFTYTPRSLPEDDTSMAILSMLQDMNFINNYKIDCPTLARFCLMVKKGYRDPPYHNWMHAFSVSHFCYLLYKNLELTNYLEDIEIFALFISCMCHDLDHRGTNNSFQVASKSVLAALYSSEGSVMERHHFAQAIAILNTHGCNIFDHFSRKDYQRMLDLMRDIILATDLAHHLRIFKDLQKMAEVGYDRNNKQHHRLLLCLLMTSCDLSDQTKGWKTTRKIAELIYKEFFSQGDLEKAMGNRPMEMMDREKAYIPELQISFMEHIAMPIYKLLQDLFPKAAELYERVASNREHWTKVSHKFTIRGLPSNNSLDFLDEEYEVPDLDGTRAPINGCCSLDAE
Sequence of hPDE10A2 (Q9Y233 267-1055): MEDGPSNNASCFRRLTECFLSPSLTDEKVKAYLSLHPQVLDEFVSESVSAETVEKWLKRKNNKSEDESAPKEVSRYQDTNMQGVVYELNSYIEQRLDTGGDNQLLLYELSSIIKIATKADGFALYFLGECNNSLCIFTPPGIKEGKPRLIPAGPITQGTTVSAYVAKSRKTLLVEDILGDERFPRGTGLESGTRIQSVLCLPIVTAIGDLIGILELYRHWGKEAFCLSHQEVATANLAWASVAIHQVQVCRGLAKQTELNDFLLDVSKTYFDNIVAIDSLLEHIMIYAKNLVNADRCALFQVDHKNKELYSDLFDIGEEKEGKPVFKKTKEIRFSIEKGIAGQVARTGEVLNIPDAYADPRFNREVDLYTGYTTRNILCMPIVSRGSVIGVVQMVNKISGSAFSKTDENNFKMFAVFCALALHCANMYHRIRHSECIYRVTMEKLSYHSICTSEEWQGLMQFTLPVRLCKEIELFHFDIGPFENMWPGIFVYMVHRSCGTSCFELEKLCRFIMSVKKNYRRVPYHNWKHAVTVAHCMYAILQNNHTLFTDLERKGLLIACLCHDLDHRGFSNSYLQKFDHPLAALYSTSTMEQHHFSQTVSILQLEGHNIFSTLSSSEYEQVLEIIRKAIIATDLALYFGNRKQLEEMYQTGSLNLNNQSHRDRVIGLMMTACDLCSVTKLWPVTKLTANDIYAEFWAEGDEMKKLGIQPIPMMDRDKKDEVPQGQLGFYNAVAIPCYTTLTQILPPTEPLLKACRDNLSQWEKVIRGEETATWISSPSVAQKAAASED

For `COc1cnc(N2CC[C@@H](C)[C@H](c3cc(C(F)F)nc4ncnn34)C2)c2ccccc12` [Compound 8], on hPDE10A2, the IC50 is 1020 nM and the Emax was determined as 97%. Moreover, on hPDE2A, the IC50 is 10.7 nM and the Emax stood at 101%. In addition, in the experiment with hPDE3B, the “hPDE3B Emax” value stood at 73 and the “hPDE3B pIC50” value came to 5.22.
On to `CCCCOc1ccnc(N2CC[C@@H](C)[C@H](c3cc(C(F)F)nc4ncnn34)C2)c1` [Compound 11], for which, at hPDE10A2, the IC50 is 355 nM and the Emax was 97%. Moreover, on hPDE2A, the IC50 was 13.8 nM and the Emax was determined as 99%. Further, in the experiment with hPDE3B, the “hPDE3B Emax” value is listed as 99 and the “hPDE3B pIC50” value was 6.02.
`C[C@@H]1CCN(c2nccc3ccc(F)cc23)C[C@H]1c1cc(C(F)F)nc2ncnn12` [Compound 14]: on hPDE10A2, the IC50 was 389 nM and the Emax was determined as 98%. Also, at hPDE2A, the IC50 was 17 nM and the Emax was found to be 101%. Moreover, in the experiment on hPDE3B, the “hPDE3B Emax” value was determined as 62 and the “hPDE3B pIC50” value is recorded as 5.29.
On to `Cc1cccc(N2CC[C@@H](C)C(c3cc(C(F)F)nc4ncnn34)C2)n1` (stereo partly drawn) [Compound 39], for which, at hPDE10A2, the IC50 was 1290 nM and the maximum response (Emax) is 87%. Further, at hPDE2A, the IC50 was 145 nM and the maximum response (Emax) turned out to be 99%. In the experiment with hPDE3B, the “hPDE3B Emax” value came to 58 and the “hPDE3B pIC50” value stood at 5.13.
As for `C[C@@H]1CCN(c2ncc(C(F)(F)F)cc2Br)C[C@H]1c1cc(C(F)F)nc2ncnn12` [Compound 19], on hPDE10A2, the IC50 is 417 nM and the Emax was determined as 96%. Besides, on hPDE2A, the IC50 was 30.2 nM and the Emax stood at 100%. In the experiment on hPDE3B, the “hPDE3B Emax” value is listed as 38 and the “hPDE3B pIC50” value is recorded as less than 5.
As to `C[C@@H]1CCN(c2ccc(F)cn2)C[C@H]1c1cc(C(F)F)nc2ncnn12` [Compound 36], on hPDE10A2, the IC50 is 1510 nM and the Emax worked out at 84%. In addition, on hPDE2A, the IC50 is 245 nM and the Emax is 100%. Also, in the experiment on hPDE3B, the “hPDE3B Emax” value was 56 and the “hPDE3B pIC50” value stood at 5.01.
Turning to `CC(C)Oc1cccnc1N1CC[C@@H](C)[C@H](c2cc(C(F)F)nc3ncnn23)C1.Cl` [Compound 31], at hPDE10A2, the IC50 was 1290 nM and the Emax is 91%. At hPDE2A, the IC50 is 257 nM and the Emax is 81%. For the same molecule, in the experiment on hPDE3B, the “hPDE3B Emax” value is 27 and the “hPDE3B pIC50” value was less than 5.
For `C[C@@H]1CCN(c2ccc(Cl)cn2)C[C@H]1c1cc(C(F)F)nc2ncnn12` [Compound 25], at hPDE10A2, the IC50 was 692 nM and the Emax came to 92%. In addition, at hPDE2A, the IC50 is 83.2 nM and the Emax was determined as 101%. In the experiment with hPDE3B, the “hPDE3B Emax” value is 45 and the “hPDE3B pIC50” value is recorded as less than 5.
`C[C@@H]1CCN(c2ccc(C(F)(F)F)cn2)C[C@H]1c1cc(C(F)F)nc2ncnn12` [Compound 38]: on hPDE10A2, the IC50 was 759 nM and the Emax was 92%. Further, on hPDE2A, the IC50 is 170 nM and the Emax is 99%. For the same molecule, in the experiment with hPDE3B, the “hPDE3B Emax” value is recorded as 49 and the “hPDE3B pIC50” value is less than 5.
Consider `C[C@@H]1CCN(c2ncccc2Cl)C[C@H]1c1cc(C(F)F)nc2ncnn12` [Compound 28], for which, at hPDE10A2, the IC50 was 692 nM and the Emax was 90%. Further, on hPDE2A, the IC50 is 110 nM and the Emax came to 99%. In the experiment with hPDE3B, the “hPDE3B Emax” value is listed as 50 and the “hPDE3B pIC50” value is given as 4.96.
Take `Cc1cc([C@@H]2CN(c3nccc4ccccc34)CC[C@H]2C)n2ncnc2n1` [Compound 15]: at hPDE10A2, the IC50 is 162 nM and the Emax turned out to be 98%. Moreover, at hPDE2A, the IC50 was 17.4 nM and the Emax was 100%. Besides, in the experiment with hPDE3B, the “hPDE3B Emax” value is 69 and the “hPDE3B pIC50” value was 5.21.
`C[C@@H]1CCN(c2cccc(C#N)n2)C[C@H]1c1cc(C(F)F)nc2ncnn12` [Compound 24]: at hPDE10A2, the IC50 is 575 nM and the Emax came to 94%. At hPDE2A, the IC50 is 79.4 nM and the Emax was 100%. Besides, in the experiment on hPDE3B, the “hPDE3B Emax” value turned out to be 68 and the “hPDE3B pIC50” value turned out to be 5.17.
Turning to `CC(C)Oc1cccnc1N1CC[C@H](C)[C@@H](c2cc(C(F)F)nc3ncnn23)C1.Cl` [Compound 34], on hPDE10A2, the IC50 was greater than 10000 nM and the Emax was found to be 33%. Further, at hPDE2A, the IC50 is 2400 nM and the Emax is 30%. For the same molecule, in the experiment with hPDE3B, the “hPDE3B Emax” value worked out at 2 and the “hPDE3B pIC50” value is reported as less than 5.
On to `FC(F)c1cc([C@H]2CC[C@H]3CC[C@@H]2N3c2c(Br)ccc3ccncc23)n2ncnc2n1` [Compound 5], for which, at hPDE10A2, the IC50 was 427 nM and the Emax stood at 97%. At hPDE2A, the IC50 is 6.76 nM and the Emax amounted to 100%. Further, in the experiment with hPDE3B, the “hPDE3B Emax” value came out at 76 and the “hPDE3B pIC50” value is 5.27.
Take `COc1ccnc(N2CC[C@@H](C)[C@H](c3cc(C(F)F)nc4ncnn34)C2)c1OC.Cl` [Compound 33]: on hPDE10A2, the IC50 was 1700 nM and the Emax came to 82%. At hPDE2A, the IC50 was 166 nM and the Emax was found to be 89%. Also, in the experiment with hPDE3B, the “hPDE3B Emax” value is reported as 40 and the “hPDE3B pIC50” value is listed as less than 5.
On to `C[C@@H]1CCN(c2cccc(C(F)(F)F)n2)C[C@H]1c1cc(C(F)F)nc2ncnn12` [Compound 26], for which, at hPDE10A2, the IC50 is 457 nM and the Emax was determined as 95%. On hPDE2A, the IC50 is 91.2 nM and the maximum response (Emax) was 99%. In the experiment on hPDE3B, the “hPDE3B Emax” value stood at 80 and the “hPDE3B pIC50” value stood at 5.43.
